Laboratory results taken from PubChem BioAssay (NCI).
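In this assay, cells in 96-well plates receive the compound at five concentrations for 48 hours. Endpoints are linearly interpolated between the surrounding concentrations. GI50: concentration for 50% inhibition of growth. Definition used: TGI = concentration required for complete inhibition of growth.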

Tests used:
Assay in all cases: NCI tumour cell line growth inhibition, 48 h
A549 NSCLC = system: A549 NSCLC
BT-549 breast = system: BT-549 breast
CAKI-1 renal = system: CAKI-1 renal
COLO 205 colon = system: COLO 205 colon
HCC-2998 colon = system: HCC-2998 colon
HOP-92 NSCLC = system: HOP-92 NSCLC
LOX IMVI melanoma = system: LOX IMVI melanoma
MCF7 breast = system: MCF7 breast
MDA-MB-231 breast = system: MDA-MB-231 breast
NCI-H226 lung = system: NCI-H226 lung
NCI-H23 lung = system: NCI-H23 lung
NCI/ADR-RES ovarian = system: NCI/ADR-RES ovarian
OVCAR-5 ovarian = system: OVCAR-5 ovarian
SK-MEL-2 melanoma = system: SK-MEL-2 melanoma
SNB-75 CNS = system: SNB-75 CNS
SW-620 colon = system: SW-620 colon
U251 CNS = system: U251 CNS
HOP-62 NSCLC = system: HOP-62 NSCLC
SK-OV-3 ovarian = system: SK-OV-3 ovarian

Structure (SMILES)	TGI (A549 NSCLC) [µM]	TGI (BT-549 breast) [µM]	TGI (CAKI-1 renal) [µM]	TGI (COLO 205 colon) [µM]	TGI (HCC-2998 colon) [µM]	TGI (HOP-92 NSCLC) [µM]	TGI (LOX IMVI melanoma) [µM]	TGI (MCF7 breast) [µM]	TGI (MDA-MB-231 breast) [µM]	TGI (NCI-H226 lung) [µM]	TGI (NCI-H23 lung) [µM]	TGI (NCI/ADR-RES ovarian) [µM]	TGI (OVCAR-5 ovarian) [µM]	TGI (SK-MEL-2 melanoma) [µM]	TGI (SNB-75 CNS) [µM]	TGI (SW-620 colon) [µM]	TGI (U251 CNS) [µM]	TGI (HOP-62 NSCLC) [µM]	TGI (SK-OV-3 ovarian) [µM]	GI50 (NCI-H226 lung) [µM]
CCc1c(Cc2cc(C)cc(C)c2)n2c(nc1=O)SCC2CBr (stereo not given)	> 50	> 50	> 50	> 50	> 50	> 50	> 50	> 50	> 50	> 50	> 50	> 50	> 50	> 50	> 50	> 50	> 50			
COc1cc2c(cc1OC)C(N)CC2=O (stereo not given)	> 100	> 100	> 100	> 100	> 100	> 100	> 100	> 100	> 100	> 100	> 100	> 100	> 100	> 100	> 100	> 100	> 100	> 100	> 100	
Cc1ccsc1/C=N/Nc1nncc2ccccc12	> 100	> 100	> 100	> 100	> 100	> 100	> 100	> 100	> 100	> 100	> 100	> 100	> 100	92	> 100	> 100	> 100	> 100	> 100	
Cc1ccc(/C=C/C(=O)c2cc(CN(C)C)c(O)c(CN(C)C)c2)cc1	58.5	35.4	50.3	22.5	46.2	70.8	21.2	50.1	27.2	59.5	> 100	79.1	> 100		88.9	38.2	58	37.5		
COC(=O)[C@@H]1C[C@@H]2c3ccccc3N(S(=O)(=O)c3ccccc3)[C@@H]2N1C(=O)OC	> 100	> 100	> 100	> 100	> 100	> 100	> 100	> 100	> 100	> 100	> 100	> 100	> 100	> 100	> 100	> 100	> 100	> 100	> 100	
Cc1cn(C2CC(N)C(C(=O)O)O2)c(=O)[nH]c1=O (stereo not given)	> 100	> 100	> 100	> 100	> 100	> 100		> 100	> 100	> 100	> 100	> 100	> 100	> 100	> 100	> 100	> 100	> 100	> 100	
O=C(O)c1ccccc1/C=N/NC1=NCCCCN1	> 100	> 100		> 100	> 100	> 100	> 100	> 100	> 100	> 100	> 100	> 100	> 100	> 100	> 100	> 100	> 100	> 100	> 100	
COc1cc2c(cc1OCc1ccccc1)NC(=S)[C@@H]1CCCN1C2=S	> 100	> 100	> 100	> 100	> 100	> 100	> 100	> 100	> 100	> 100	> 100	> 100	> 100	> 100	90.3	> 100	> 100	66.2	> 100	
NC(=O)c1[nH]cnc1/N=N/SCC(N)C(=O)O (stereo not given)	> 100	> 100	> 100	> 100	> 30.6	> 100	> 100	> 100	> 54.9	> 100	> 100	> 100	> 100	> 100	> 100	> 100	> 100	> 100	> 100	
O=C(O)CCCOc1cc(-c2ccccc2F)nc2cc3c(cc12)OCO3	> 100	> 100	> 100	27.4	> 100	95.6	> 100	> 100	> 100	> 100	> 100	> 100	> 100	> 100	> 100	> 100	> 100	> 100	> 100	8.51
C=CCOC(=O)[C@@H]1C[C@@H](OC(C)(C)C)CN1C(=O)[C@@H]1[C@H]2OC(C)(C)O[C@H]2CN1C(=O)OCC1c2ccccc2-c2ccccc21	31.9	37.1	16.9	45.7	30.7	35	4.87	> 100	33.1	47.7	33.9	9.87	32.9	> 55	33.9	43.4	28.8	4.51	31.6	
O=C(NC(Nc1ccc(F)c(Cl)c1)(C(F)(F)F)C(F)(F)F)OCc1ccccc1	> 100	33.6	> 100	35.1	64.8	95	> 100	38.1	33.5	> 100	> 100	> 100	> 100	> 100	> 100	> 100	> 100	> 100	74.1	
Cc1cc(NS(=O)(=O)c2ccc(Nc3c4ccccc4nc4ccc(C(=O)Nc5ccc(S(N)(=O)=O)cc5)cc34)cc2)no1	> 100	> 100	> 100	> 100	> 100	> 100	> 100	> 100	> 100	> 100	> 100	> 100	> 100	> 100	> 100	> 100	> 100	> 100	> 100	
O=C(c1ccccc1)c1sc2c(=O)c(C(=O)c3ccccc3)c(C(=O)c3ccccc3)sc2c(=O)c1C(=O)c1ccccc1	> 100	> 100	34.5	> 100	44	> 100	> 100	> 100	> 100	> 100	> 100	74.9	> 100	> 100	68	> 100	> 100	> 100	> 100	
COc1cc(N(CCC#N)CCC#N)ccc1/C(N=Nc1ccccc1)=N/NC(=O)c1cc(Br)ccc1O	> 100	65.2	61.4	29.8	48	68.6	65.1	55.5	62.6	> 100	49.8	> 100	> 100	85.1	> 100	> 100	> 100	95.5	> 100	
S=c1sc2nc(Cl)nc(Cl)c2s1	42.4	24	17.8	20.4	31.6	17.4	30.3	25.2	24.7	32.7	39.3	38.2	29.5	23.8	34.8	21.1	21.3	36.9	31.6	
O=C1NC(N2CCCC(CO)C2)=N/C1=C\c1ccc(Cl)cc1 (stereo not given)	> 100	> 100	> 100	> 100	> 100	> 100	> 100	> 100	> 100	> 100	> 100	> 100	> 100	> 100	> 100	> 100	> 100	> 100	> 100	
C=CC[C@@]1(C)CCCCCCCCC[C@@](C)(CC=C)C1=O	> 100	62.3	> 100	42.3	35	> 100	33.6	> 100	80.9	48.4	63.9	> 100	> 100	37.9	92.4	63.5	33	> 100	> 100	
CCS(=O)(=O)CCn1cnc2c1c(=O)n(C)c(=O)n2C	> 100	> 100	> 100	> 100	> 100	> 100	> 100	> 100	> 100	> 100	> 100	> 100	> 100	> 100	> 100	> 100	> 100	> 100		
COc1ccc([C@@]23OC[C@@H]4[C@@H](OC[C@@H]42)c2cc(OC)c(OC)cc23)cc1OC	> 100	> 100	> 100	> 100	> 100		> 100	> 100	> 100	> 100	> 100	> 100	> 100	> 100	> 100	> 100	> 100	> 100	> 100	
Cc1ccc(/C=C/C(=N/NC(=O)N/N=C(/C=C/c2ccc(C)cc2)C(C)(C)CN2CCCCC2)C(C)(C)CN2CCCCC2)cc1	3.02	4.21	5.56	3.07	3.21	3.44	2.64	2.83	3.22	4.51	4.82	3.08	4.98	3.44	3.08	3.35	2.82	3.08	3.32	
C[C@]12[C@@H]3CC[C@H]1[C@@H](OC(=O)Nc1cc([N+](=O)[O-])cc([N+](=O)[O-])c1)C(=O)N2CC3	> 100	> 100	> 100	> 100	> 100	> 100	> 100	> 100	> 100	> 100	> 100	> 100	> 100	> 100	> 100	> 100	> 100	> 100	> 100	
O=C(c1cccc(C(=O)c2ccc3c4c(cccc24)C(=O)N(c2ccccc2)C3=O)c1)c1ccc2c3c(cccc13)C(=O)N(c1ccccc1)C2=O	> 100	> 100	> 100	> 100	> 100	> 100	> 100	> 100	> 100	> 100	> 100	> 100	> 100		> 100	> 100	> 100	> 100	> 100	
COc1cc(O)c2c(=O)cc(C3(O)C=CC(=O)C=C3)oc2c1		1.49		0.906	1.12	0.493	0.464	0.58	0.789	1.73	2.46	18.9		2.66	3.06	0.0663	0.0808	0.486	13.8	
